Experimental data from patent US20260091136A1, “USING ENHO GENE THERAPY TO TREAT CARDIOMETABOLIC DISEASE” (University of Pittsburgh-of the Commonwealth System of …, priority 2023, published 2026).

Test system: HFpEF mice
Experiment: Glucose tolerance testing (IPGTT) in HFpEF mice (Example 1)
Type: in vivo
Conditions: for glucose tolerance: HFpEF mice, four weeks of Adropin treatment
Protocol: Administration of Recombinant Adropin. Mice received low-fat chow or HFpEF diet for 10 weeks. For the following 4 weeks, the mice were maintained on respective diets and received daily injections of recombinant Adropin. Body weight was measured every day during the four weeks of treatment.
Glucose tolerance testing. Glucose tolerance was tested (IPGTT), following a 2 g/kg bolus of glucose. Blood was collected at 15 mins, 30 mins, 45 mins, 60 mins, 90 mins, and 120 mins, and measured using a standard glucometer (Bayer Next EZ). Time-courses for blood glucose uptake will be generated and analyzed for significance using standard statistical tests.

[1] = IPGTT AUC analysis, p-value <0.05

Adropin: recombinant Adropin peptide hormone encoded by the ENHO gene; full-length (SEQ ID NO: 1) or cleaved product of amino acids 34-76 (SEQ ID NO: 2) (CHSRSADVDSLSESSPNSSPGPCPEKAPPPQKPSHEGSYLLQP)
average blood glucose, IPGTT (HFpEF mice that received Adropin, by the 120 minute timepoint): gradually decreased to match control chow mice
glucose tolerance: increase
glucose tolerance (listed as Recombinant Adropin): significant increase
blood glucose AUC of HFpEF mice that received Adropin relative to control chow mice [1]: significantly greater
blood glucose AUC of HFpEF mice without Adropin relative to HFpEF mice that received Adropin [1]: significantly greater
